Laboratory results published in patent US10653688B2, “6-(6-membered heteroaryl and aryl)isoquinolin-3-yl carboxamides and preparation and use thereof” (Samumed, LLC, priority 2017, dated 2020).

Assays:
[1] = system: secreted cytokines TNFα, IL-6 and KC-GRO in BV-2 cells (mouse microglial cells); test: Secreted cytokines in lipopolysaccharide-stimulated mouse glial cell line; type: cell-based; conditions: LPS 250 ng/mL 5 hours, table does not say which cytokine
How it was run: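 BV-2 cells seeded at 35,000/well were pretreated overnight with compound (10 μM to 4.6 nM final), then stimulated 5 h with 250 ng/mL E. coli O111:B4 LPS. Supernatant TNFα, IL-6 and KC-GRO were quantified by electrochemiluminescence against standard curves (pg/mL) to fit EC50. Cytotoxicity was checked by CellTiter-Glo ATP read-out.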

[2] = system: LL29 cells (primary human fibroblasts derived from IPF patients), α-smooth muscle actin; test: Inhibition of fibrotic process: TGF-β1-treated primary human fibroblasts, αSMA staining; type: cell-based; conditions: Homo sapiens, Fibroblast; for EC50: 96 h, TGF-β1 20 ng/mL, 4 days, % cells positive for αSMA; for inhibition at 10 µM: read-out: percent inhibition at 10 μM (given for EC50 >10 μM), TGF-β1, αSMA, 10 μM;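 as to all read-outs here: controls were TGF-β1-stimulated wells with DMSO vehicle as the positive reference and cells given DMSO alone as the negative reference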
Method: Representative compounds were screened using primary human fibroblasts (derived from IPF patients) treated with TGF-β1 to determine their ability to inhibit the fibrotic process.
Human Fibroblast Cell Culture:
Each compound was dissolved in DMSO as a 10 mM stock and used to prepare compound source plates. […] LL29 cells were plated at 1,500 cells/well in 70 μL/well F12 medium supplemented with 1% Fetal Bovine Serum. […] Wells treated with TGF-β1 and containing DMSO were used as positive control, and cells with only DMSO were negative control. Cells were incubated at 37° C. and 5% CO2 for 4 days. Following incubation for 4 days, SYTOX green nucleic acid stain (Life Technologies [Thermo Fisher Scientific]) was added to the wells at a final concentration of 1 μM and incubated at room temperature for 30 min. Cells were then fixed using 4% formaldehyde (Electron Microscopy Sciences), washed 3 times with PBS followed by blocking and permeabilization using 3% Bovine Serum Albumin (BSA; Sigma) and 0.3% Triton X-100 (Sigma) in PBS.

[3] = system: pT212Tau in Dyrk1a- and MAPT-overexpressing HEK293T cells; test: Tau phosphorylation at Threonine 212 (pT212Tau) sandwich ELISA in double transfected cells; conditions: Homo sapiens, HEK-293T, read-out: Thr212 EC50 (μM)
[4] = system: Cyclin D1 phosphorylation at Threonine 286 (pCcnD1) over total Cyclin D1 in SH-SY5Y cells; test: phosphoCcnD1 to total CcnD1 ratio (PTT) cell-based assay, western blot; conditions: Homo sapiens, 48 hours
Method: Representative compounds were screened using the cell-based assay procedure for the ratio of signal of Cyclin D1 phosphorylation at Threonine 286 (pCcnD1) over the signal of total Cyclin D1 (CcnD1) (abbreviated: phosphoCcnD1 to total CcnD1 ratio, or PTT) as described below.
SH-SY5Y cells (human neuroblastoma, Sigma, Saint-Louis, Mo.) were cultured in 1:1 DMEM/F-12 medium supplemented with 15% FBS, 1% non-essential amino acid, and 1% penicillin/streptomycin.
SH-SY5Y cells were seeded at 1.0×10^5 cells in 1 mL per well in a 24-well plate. After cell adherence was confirmed, DMSO-resuspended Samumed compounds were dispensed to eight wells as a serial dilution from 10 μM to 4.6 nM final concentration in medium, or at 1.1 μM to 4.6 nM with particularly potent compounds. Cells were exposed to Samumed compounds for 48 hours in a 37° C. incubator.
Wells of compound-treated cells were visually checked for cell death before being washed with 500 μL per well of 1×DPBS supplemented with phosphatase inhibitor diluted to 1×. Cells were then lysed with 90 μL 1×RIPA buffer supplemented with phosphatase and protease inhibitors (each diluted to a final 1×). After scraping, 60 μL of cell lysate from each sample was used to dilute 4×LDS (ThermoFisher, NP0007) and 20×XT reducing agent (Bio-Rad, 1610792), each diluted to 1× final. All samples were then denatured via boiling at 95° C. Denatured cell sample lysates were directly tested for pCcnD1 and total CcnD1 signal by Western blot techniques and analysis. Specifically, denatured lysates were directly transferred to NuPAGE™ 4-12% Bis-Tris Midi Protein Gels, 26-well gels (ThermoFisher, WG1403BOX). Gels were transferred to […] nitrocellulose membranes via iBlot™ Transfer Stack, nitrocellulose, regular size (ThermoFisher, IB301031). Membranes were blocked with 1×TBS, 5% milk (Bio-Rad, 1706404XTU) before being probed for overnight with either anti-pCcnD1 primary antibody (Cell Signaling Technology, 2978S) or anti-total CcnD1 primary antibody (Cell Signaling Technology, 3300S) diluted 1:500 in 1×TBS-0.05% Tween-20, 3% milk. After overnight incubation in primary antibodies, membranes were washed profusely with 1×TBS-0.05% Tween-20 and probed for 1 hour with secondary anti-rabbit/HRP conjugate (Cell Signaling Technology, 7074S) diluted 1:1000 in 1×TBS-0.05% Tween-20, 3% milk. After incubation in secondary antibody, membranes were washed with 1×TBS-0.05% Tween-20.
Probed and washed membranes were developed for pCcnD1 or total CcnD1 signal with SuperSignal™ West Femto Maximum Sensitivity Substrate (ThermoFisher, 34096) using the ChemoDoc-It^2 (UVP) and related GelDocIt imaging software. Blots were then stripped, blocked, stained with anti-β-actin/HRP conjugate antibody (Cell Signaling Technology, 5125S), developed, and imaged for housekeeping β-actin protein control as previously described. Densitometry was measured with ImageJ (NIH) and signal was used to plot, draw the curves fitting, and determine the EC50 values in GraphPad Prism for tested Samumed compounds.

[5] = system: SW480 colon carcinoma cells; test: Cell viability assay (CellTiter-Glo); type: cell-based, human; conditions: Homo sapiens; for EC50: 96 h, four days, CellTiter-Glo; for inhibition at 10 µM: read-out: percent inhibition at 10 μM (given for EC50 >10 μM), 10 μM

Row | SMILES | EC50 [1] | EC50 [4] | EC50 [5] | EC50 [2] | EC50 [3] | inhibition at 10 µM [5] | inhibition at 10 µM [2]
1 | [2H]c1nc([2H])c(-c2ccc3cnc(NC(=O)CN4CCCC4)cc3c2)c([2H])c1[2H] [Compound 60, N-(6-(pyridin-3-yl-d4)isoquinolin-3-yl)-2-(pyrrolidin-1-yl)acetamide] | 3.23 µM | 0.25 µM | 3.94 µM | 2.6 µM | 0.126 µM | – | –
2 | CC(C)CN1CCCC(C(=O)Nc2cc3cc(-c4cnccn4)ccc3cn2)CC1 (stereo not shown) [Compound 81, 1-Isobutyl-N-(6-(pyrazin-2-yl)isoquinolin-3-yl)azepane-4-carboxamide] | 1.47 µM | 3 µM | > 10 µM | 5.46 µM | 0.37 µM | 21.3% | –
3 | CN1CCN(c2cc(C(=O)Nc3cc4cc(-c5cnc6ocnc6c5)ccc4cn3)ccn2)CC1 [Compound 132, 2-(4-Methylpiperazin-1-yl)-N-(6-(oxazolo[5,4-b]pyridin-6-yl)isoquinolin-3-yl)isonicotinamide] | 6.08 µM | > 10 µM | 1.51 µM | 1.35 µM | 6.2 µM | – | –
4 | Cc1cc2ncc(-c3ccc4cnc(NC(=O)c5ccnc(N6CCN(C)CC6)c5)cc4c3)cc2[nH]1 [Compound 135, N-(6-(2-Methyl-1H-pyrrolo[3,2-b]pyridin-6-yl)isoquinolin-3-yl)-2-(4-methylpiperazin-1-yl)isonicotinamide] | 2.24 µM | 0.037 µM | 2.37 µM | 2.48 µM | 3.2 µM | – | –
5 | COc1cncc(-c2ccc3cnc(NC(=O)CN4CCOCC4)cc3c2)c1 [Compound 147, N-(6-(5-Methoxypyridin-3-yl)isoquinolin-3-yl)-2-morpholinoacetamide] | 0.628 µM | 0.359 µM | > 10 µM | > 10 µM | 0.147 µM | 5.3% | 24.4%

Molecules with a lower EC50 [1], results first:

Row | EC50 [1] | EC50 [4] | EC50 [5] | SMILES | EC50 [2] | EC50 [3] | inhibition at 10 µM [5] | inhibition at 10 µM [2]
6 | 0.152 µM | 0.193 µM | 3.18 µM | O=C(Nc1cc2cc(-c3cncc(CN4CCOCC4)c3)ccc2cn1)C1CC1 [Compound 57, N-(6-(5-(Morpholinomethyl)pyridin-3-yl)isoquinolin-3-yl) cyclopropanecarboxamide] | 2.16 µM | 0.05 µM | – | –
7 | 0.194 µM | 0.447 µM | > 10 µM | CN1CCC(C(=O)Nc2cc3cc(-c4cnccn4)ccc3cn2)CC1 [Compound 75, 1-Methyl-N-(6-(pyrazin-2-yl)isoquinolin-3-yl)piperidine-4-carboxamide] | 1.37 µM | 0.089 µM | 44.5% | –
8 | 0.211 µM | 0.412 µM | 1.22 µM | O=C(Nc1cc2cc(-c3cncc(NC4CCNCC4)n3)ccc2cn1)C1CCOCC1 [Compound 109, N-(6-(6-(Piperidin-4-ylamino)pyrazin-2-yl)isoquinolin-3-yl)tetrahydro-2H-pyran-4-carboxamide] | 0.027 µM | 0.014 µM | – | –
9 | 0.157 µM | 0.298 µM | > 10 µM | O=C(CN1CCOCC1)Nc1cc2cc(-c3cccnc3)c(F)cc2cn1 [Compound 144, N-(7-Fluoro-6-(pyridin-3-yl)isoquinolin-3-yl)-2-morpholinoacetamide] | 4.59 µM | 0.051 µM | 22% | –
10 | 0.157 µM | 0.048 µM | > 10 µM | CN1CCN(CC(=O)Nc2cc3cc(-c4cccnc4)c(F)cc3cn2)CC1 [Compound 145, N-(7-Fluoro-6-(pyridin-3-yl)isoquinolin-3-yl)-2-(4-methylpiperazin-1-yl) acetamide] | 6.52 µM | 0.81 µM | 18.8% | –
11 | 0.201 µM | 0.068 µM | > 10 µM | Cc1cncc(-c2ccc3cnc(NC(=O)CN4CCOCC4)cc3c2)c1 [Compound 146, N-(6-(5-Methylpyridin-3-yl)isoquinolin-3-yl)-2-morpholinoacetamide] | > 10 µM | 0.054 µM | 23.1% | 23.8%
12 | 0.198 µM | 0.016 µM | > 10 µM | [2H]C1([2H])OC([2H])([2H])C([2H])([2H])N(CC(=O)Nc2cc3cc(-c4cccnc4)ccc3cn2)C1([2H])[2H] [Compound 151, 2-(Morpholino-d8)-N-(6-(pyridin-3-yl)isoquinolin-3-yl)acetamide] | > 10 µM | 0.009 µM | 24.6% | 21.2%
